Results taken from patent US9211310B2, “Use of a Chinese medicine composition in preparing medicaments for treating secondary prevention of myocardial infarction” (TASLY PHARMACEUTICAL GROUP CO., LTD, priority 2010, dated 2015).

Tested on: patients after acute myocardial infarction
Assay: TCM symptom score, total and single (chest pain, chest tightness, short breath, fatigue, palpitation, spontaneous perspiration, pale complexion), same clinical trial
Assay type: in vivo, human
Design: total score of TCM symptom, Mean / total score of TCM symptom, Min / total score of TCM symptom, Max / total score of TCM symptom, Md / change of total score of TCM symptom, Mean / change of total score of TCM symptom, Max / change of total score of TCM symptom, Md: scale not given here
Settings: PP
From the text: 3508 patients who were in accordance with the diagnostic standards of AMI for 28 days to 2 years and differentiated as Qi deficiency and blood stagnation syndrome by TCM were studied. 0.5 g Chinese medicine composition prepared by the method of EXAMPLE 1 (Coded as QSYQ) was administrated half an hour after meal, 3 times per day.
They included the overall survival time, angina pectoris score, TCM symptom score and life quality score, where angina pectoris score, TCM symptom score and life quality score were evaluated at randomization, in 1st, 3rd, 6th, 9th, 12th month after treatment and 18th month after follow-up.
The analysis method referred to the angina pectoris score.

[1] = 9 months after treatment-baseline
[2] = 12 months after treatment-baseline

For `CC(=O)Oc1ccccc1C(=O)O` [Control group, aspirine], the “change of spontaneous perspiration −2, percent of patients” value [1] was “(0.43%)”, the “change of spontaneous perspiration −3, number of patients” value [1] was 0 and the “change of spontaneous perspiration −3, percent of patients” value [1] was “(0.00%)”. The “change of total score of TCM symptom, Max” value [1] was 15.00, the “change of total score of TCM symptom, Md” value [1] was −4.00 and the “change of total score of TCM symptom, Mean” value [1] was −5.04. The “change of short breath 0, number of patients” value (12 months after treatment) was 743, the “distribution of total score of TCM symptom: Medium, number of patients” value (12 months after treatment) was 229 and the “distribution of total score of TCM symptom: Medium, percentage of patients” value (12 months after treatment) was “(16.33%)”. For the same compound, the “distribution of total score of TCM symptom: Mild, number of patients” value (12 months after treatment) was 1172, the “distribution of total score of TCM symptom: Mild, percentage of patients” value (12 months after treatment) was “(83.59%)” and the “distribution of total score of TCM symptom: Severe, number of patients” value (12 months after treatment) was 1. For the same compound, the “distribution of total score of TCM symptom: Severe, percentage of patients” value (12 months after treatment) was “(0.07%)”, the “fatigue score 0, % of patients” value (12 months after treatment) was “(39.06%)” and the “fatigue score 0, number of patients” value (12 months after treatment) was 548. For the same compound, the “fatigue score 2, % of patients” value (12 months after treatment) was “(58.16%)”, the “fatigue score 2, number of patients” value (12 months after treatment) was 816 and the “fatigue score 4, % of patients” value (12 months after treatment) was “(2.64%)”. For the same compound, the “fatigue score 4, number of patients” value (12 months after treatment) was 37, the “fatigue score 6, % of patients” value (12 months after treatment) was “(0.14%)” and the “fatigue score 6, number of patients” value (12 months after treatment) was 2. The “pale complexion score 0, number of patients” value (12 months after treatment) was 870, the “pale complexion score 0, percent of patients” value (12 months after treatment) was “(62.01%)” and the “pale complexion score 1, number of patients” value (12 months after treatment) was 463. For the same compound, the “pale complexion score 1, percent of patients” value (12 months after treatment) was “(33.00%)”, the “pale complexion score 2, number of patients” value (12 months after treatment) was 63 and the “pale complexion score 2, percent of patients” value (12 months after treatment) was “(4.49%)”. For the same compound, the “pale complexion score 3, number of patients” value (12 months after treatment) was 7, the “pale complexion score 3, percent of patients” value (12 months after treatment) was “(0.50%)” and the “palpitation score 0, number of patients” value (12 months after treatment) was 576. For the same compound, the “palpitation score 0, percent of patients” value (12 months after treatment) was “(41.05%)”, the “palpitation score 2, number of patients” value (12 months after treatment) was 745 and the “palpitation score 2, percent of patients” value (12 months after treatment) was “(53.10%)”. For the same compound, the “palpitation score 4, number of patients” value (12 months after treatment) was 78, the “palpitation score 4, percent of patients” value (12 months after treatment) was “(5.56%)” and the “palpitation score 6, number of patients” value (12 months after treatment) was 4. The “palpitation score 6, percent of patients” value (12 months after treatment) was “(0.29%)”, the “short breath score 0, % of patients” value (12 months after treatment) was “(33.36%)” and the “short breath score 0, number of patients” value (12 months after treatment) was 468. The “short breath score 3, % of patients” value (12 months after treatment) was “(58.45%)”, the “short breath score 3, number of patients” value (12 months after treatment) was 820 and the “short breath score 6, % of patients” value (12 months after treatment) was “(8.20%)”. The “short breath score 6, number of patients” value (12 months after treatment) was 115, the “short breath score 9, % of patients” value (12 months after treatment) was “(0.00%)” and the “short breath score 9, number of patients” value (12 months after treatment) was 0. The “spontaneous perspiration score 0, number of patients” value (12 months after treatment) was 730, the “spontaneous perspiration score 0, percent of patients” value (12 months after treatment) was “(52.03%)” and the “spontaneous perspiration score 1, number of patients” value (12 months after treatment) was 640. For the same compound, the “spontaneous perspiration score 1, percent of patients” value (12 months after treatment) was “(45.62%)”, the “spontaneous perspiration score 2, number of patients” value (12 months after treatment) was 31 and the “spontaneous perspiration score 2, percent of patients” value (12 months after treatment) was “(2.21%)”. For the same compound, the “spontaneous perspiration score 3, number of patients” value (12 months after treatment) was 2, the “spontaneous perspiration score 3, percent of patients” value (12 months after treatment) was “(0.14%)” and the “total score of TCM symptom, Max” value (12 months after treatment) was 28.00. The “total score of TCM symptom, Md” value (12 months after treatment) was 7.00, the “total score of TCM symptom, Mean” value (12 months after treatment) was 7.81 and the “total score of TCM symptom, Min” value (12 months after treatment) was 0.00. For the same compound, the “change of fatigue 0, % of patients” value [2] was “(44.10%)”, the “change of fatigue 0, number of patients” value [2] was 617 and the “change of fatigue 2, % of patients” value [2] was “(38.03%)”. The “change of fatigue 2, number of patients” value [2] was 532, the “change of fatigue 4, % of patients” value [2] was “(10.51%)” and the “change of fatigue 4, number of patients” value [2] was 147. For the same compound, the “change of fatigue 6, % of patients” value [2] was “(1.64%)”, the “change of fatigue 6, number of patients” value [2] was 23 and the “change of fatigue −2, % of patients” value [2] was “(5.43%)”. The “change of fatigue −2, number of patients” value [2] was 76, the “change of fatigue −4, % of patients” value [2] was “(0.29%)” and the “change of fatigue −4, number of patients” value [2] was 4. For the same compound, the “change of pale complexion 0, number of patients” value [2] was 967, the “change of pale complexion 0, percent of patients” value [2] was “(69.22%)” and the “change of pale complexion 1, number of patients” value [2] was 393. The “change of pale complexion 1, percent of patients” value [2] was “(28.13%)”, the “change of pale complexion −1, number of patients” value [2] was 37 and the “change of pale complexion −1, percent of patients” value [2] was “(2.65%)”. For the same compound, the “change of palpitation 0, number of patients” value [2] was 679, the “change of palpitation 0, percent of patients” value [2] was “(48.53%)” and the “change of palpitation 1, number of patients” value [2] was 536. The “change of palpitation 1, percent of patients” value [2] was “(38.31%)”, the “change of palpitation 2, number of patients” value [2] was 97 and the “change of palpitation 2, percent of patients” value [2] was “(6.93%)”. For the same compound, the “change of palpitation 3, number of patients” value [2] was 6, the “change of palpitation 3, percent of patients” value [2] was “(0.43%)” and the “change of palpitation −1, number of patients” value [2] was 78. The “change of palpitation −1, percent of patients” value [2] was “(5.58%)”, the “change of palpitation −2, number of patients” value [2] was 3 and the “change of palpitation −2, percent of patients” value [2] was “(0.21%)”. For the same compound, the “change of spontaneous perspiration 0, number of patients” value [2] was 647, the “change of spontaneous perspiration 0, percent of patients” value [2] was “(46.28%)” and the “change of spontaneous perspiration 1, number of patients” value [2] was 483. The “change of spontaneous perspiration 1, percent of patients” value [2] was “(34.55%)”, the “change of spontaneous perspiration 2, number of patients” value [2] was 128 and the “change of spontaneous perspiration 2, percent of patients” value [2] was “(9.16%)”. For the same compound, the “change of spontaneous perspiration 3, number of patients” value [2] was 29, the “change of spontaneous perspiration 3, percent of patients” value [2] was “(2.07%)” and the “change of spontaneous perspiration −1, number of patients” value [2] was 103. For the same compound, the “change of spontaneous perspiration −1, percent of patients” value [2] was “(7.37%)”, the “change of spontaneous perspiration −2, number of patients” value [2] was 8 and the “change of spontaneous perspiration −2, percent of patients” value [2] was “(0.57%)”. For the same compound, the “change of total score of TCM symptom, Max” value [2] was 18.00, the “change of total score of TCM symptom, Md” value [2] was −5.00 and the “change of total score of TCM symptom, Mean” value [2] was −6.09. For the same compound, the “change of total score of TCM symptom, Min” value [2] was −28.00, the “distribution of total score of TCM symptom: Medium, number of patients” value (Baseline) was 717 and the “distribution of total score of TCM symptom: Medium, percentage of patients” value (Baseline) was “(48.78%)”. For the same compound, the “distribution of total score of TCM symptom: Mild, number of patients” value (Baseline) was 701, the “distribution of total score of TCM symptom: Mild, percentage of patients” value (Baseline) was “(47.69%)” and the “distribution of total score of TCM symptom: Severe, number of patients” value (Baseline) was 52. For the same compound, the “distribution of total score of TCM symptom: Severe, percentage of patients” value (Baseline) was “(3.54%)”, the “fatigue score 0, % of patients” value (Baseline) was “(18.22%)” and the “fatigue score 0, number of patients” value (Baseline) was 268. For the same compound, the “fatigue score 2, % of patients” value (Baseline) was “(60.50%)”, the “fatigue score 2, number of patients” value (Baseline) was 890 and the “fatigue score 4, % of patients” value (Baseline) was “(17.74%)”. For the same compound, the “fatigue score 4, number of patients” value (Baseline) was 261, the “fatigue score 6, % of patients” value (Baseline) was “(3.54%)” and the “fatigue score 6, number of patients” value (Baseline) was 52. For the same compound, the “pale complexion score 0, number of patients” value (Baseline) was 494, the “pale complexion score 0, percent of patients” value (Baseline) was “(33.61%)” and the “pale complexion score 1, number of patients” value (Baseline) was 626. The “pale complexion score 1, percent of patients” value (Baseline) was “(42.59%)”, the “pale complexion score 2, number of patients” value (Baseline) was 293 and the “pale complexion score 2, percent of patients” value (Baseline) was “(19.93%)”. The “pale complexion score 3, number of patients” value (Baseline) was 57.
